Test: DPPH radical scavenging (antioxidant) assay
Format: biochemical
Conditions: vitamin C 1 mM
Procedure: The antioxidant activity of the natural composite preservatives was analyzed with DPPH (1,1-diphenyl-2-picrylhydrazyl). DPPH is a color radical generally used in determining radical scavenging capacity. Test samples were dissolved in 4 ml of distilled water or a solvent and mixed with 1 ml of 100 μM DPPH before incubation at room temperature for 30 min. Absorbance at 517 nm was read to calculate the amount of remaining DPPH (blank: distilled water or solvent only, control: DPPH alone in distilled water or solvent). Radical Scavenging Activity (RSA) was expressed as percentages of the test groups relative to the control, as calculated by the following equation 1.

## O=C1O[C@H]([C@@H](O)CO)C(O)=C1O [vitamin C]
  RSA: 35%

From US20070231403A1, “Natural composite preservatives” (priority 2006, published 2007)
